Assay results from PubChem BioAssay (NCI).
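1) Cells in 96-well plates. 2) Compound, 48 h, 5 concentrations. 3) Linear interpolation between surrounding doses. 4) Unreached endpoint = highest concentration. Abbreviation: GI50, concentration required for 50% inhibition of growth. The concentration for full growth arrest is given as TGI.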

How the values were obtained:
Experiment in all cases: NCI-60 cell line screen, 48 h; in the data active = GI50 below about 0.43 µM; inactive = the rest
[1] = test system: SNB-19 CNS
[2] = test system: NCI-H23 lung
[3] = test system: CCRF-CEM leukemia
[4] = test system: HL-60(TB) leukemia
[5] = test system: SK-MEL-2 melanoma
[6] = test system: M14 melanoma
[7] = test system: MCF7 breast
[8] = test system: KM12 colon
[9] = test system: NCI-H522 lung
[10] = test system: RPMI-8226 leukemia
[11] = test system: HCC-2998 colon
[12] = test system: HCT-15 colon
[13] = test system: HOP-62 NSCLC
[14] = test system: PC-3 prostate
[15] = test system: MDA-MB-435
[16] = test system: OVCAR-3 ovarian
[17] = test system: MOLT-4 leukemia
[18] = test system: HS 578T breast
[19] = test system: OVCAR-8 ovarian
[20] = test system: COLO 205 colon
[21] = test system: MDA-MB-231 breast
[22] = test system: SK-OV-3 ovarian
[23] = test system: EKVX NSCLC
[24] = test system: RXF 393 renal
[25] = test system: 786-0 renal
[26] = test system: UACC-257 melanoma
[27] = test system: T-47D breast
[28] = test system: DU-145 prostate
[29] = test system: BT-549 breast
[30] = test system: SK-MEL-5 melanoma
[31] = test system: HT29 colon
[32] = test system: HOP-92 NSCLC
[33] = test system: A498 renal
[34] = test system: TK-10 renal
[35] = test system: UO-31 renal
[36] = test system: MALME-3M melanoma
[37] = test system: SF-295 CNS
[38] = test system: OVCAR-5 ovarian
[39] = test system: CAKI-1 renal
[40] = test system: SK-MEL-28 melanoma
[41] = test system: SW-620 colon
[42] = test system: LOX IMVI melanoma
[43] = test system: U251 CNS
[44] = test system: A549 NSCLC
[45] = test system: IGROV1 ovarian
[46] = test system: SR leukemia
[47] = test system: SF-268 CNS
[48] = test system: UACC-62 melanoma
[49] = test system: HCT-116 colon
[50] = test system: OVCAR-4 ovarian
[51] = test system: K-562 leukemia
[52] = test system: NCI-H226 lung
[53] = test system: NCI-H460 lung
[54] = test system: SNB-75 CNS
[55] = test system: SN12C renal
[56] = test system: NCI/ADR-RES ovarian
[57] = test system: SF-539 CNS
[58] = test system: ACHN renal

COc1cccc2c1C(=O)c1c(O)c3c(c(O)c1C2=O)C[C@@](O)(C(=O)CO)C[C@@H]3O[C@H]1C[C@H](N)[C@@H](O)[C@H](C)O1
13.4 µM: TGI [16]
30.7 µM: TGI [39]
16.1 µM: TGI [23]
1.02 µM: TGI [24]
active: GI50 [1] 0.127 µM | GI50 [2] 0.122 µM | GI50 [3] 0.0919 µM | GI50 [4] 0.145 µM | GI50 [6] 0.281 µM | GI50 [7] 0.0247 µM | GI50 [9] 0.101 µM | GI50 [10] 0.161 µM | GI50 [11] 0.161 µM | GI50 [13] 0.16 µM | GI50 [17] 0.0326 µM | GI50 [18] 0.257 µM | GI50 [19] 0.256 µM | GI50 [20] 0.313 µM | GI50 [22] 0.318 µM | GI50 [24] 0.205 µM | GI50 [25] 0.123 µM | GI50 [27] 0.128 µM | GI50 [28] 0.159 µM | GI50 [29] 0.128 µM | GI50 [32] 0.0743 µM | GI50 [33] 0.134 µM | GI50 [36] 0.145 µM | GI50 [37] 0.158 µM | GI50 [40] 0.351 µM | GI50 [42] 0.0826 µM | GI50 [44] 0.05 µM | GI50 [45] 0.175 µM | GI50 [46] 0.0137 µM | GI50 [47] 0.196 µM | GI50 [48] 0.0847 µM | GI50 [49] 0.112 µM | GI50 [51] 0.147 µM | GI50 [52] 0.068 µM | GI50 [53] 0.0231 µM | GI50 [54] 0.084 µM | GI50 [55] 0.126 µM
16.4 µM: TGI [43]
31.6 µM: TGI [22]
0.634 µM: TGI [54]
14 µM: TGI [7]
1.29 µM: TGI [11] | TGI [15]
7.61 µM: TGI [41]
1.22 µM: TGI [44]
21.7 µM: TGI [1]
0.285 µM: TGI [17]
1.06 µM: TGI [33]
3.3 µM: TGI [18]
0.623 µM: TGI [30]
3.61 µM: TGI [10]
10.5 µM: TGI [34]
0.89 µM: TGI [9]
50 µM: TGI [12]
1.23 µM: TGI [20]
0.95 µM: TGI [3]
1.82 µM: TGI [26]
1.16 µM: TGI [6]
11.9 µM: TGI [55]
2.37 µM: TGI [13]
0.697 µM: TGI [32]
5.32 µM: TGI [14]
3.09 µM: TGI [5]
0.953 µM: TGI [2]
inactive: GI50 [5] 0.514 µM | GI50 [8] 0.502 µM | GI50 [12] 2.99 µM | GI50 [14] 0.551 µM | GI50 [15] 0.465 µM | GI50 [16] 0.613 µM | GI50 [21] 0.595 µM | GI50 [23] 1.2 µM | GI50 [26] 0.431 µM | GI50 [35] 0.866 µM | GI50 [38] 1.27 µM | GI50 [39] 1.32 µM | GI50 [50] 0.546 µM
7.75 µM: TGI [31]
5.89 µM: TGI [35]
5.17 µM: TGI [49]
5.05 µM: TGI [51]
5.87 µM: TGI [50]
2.08 µM: TGI [47]
1.54 µM: TGI [37]
0.718 µM: TGI [36]
1.01 µM: TGI [4]
0.498 µM: TGI [48]
1.07 µM: TGI [46]
0.222 µM: TGI [52]
18.2 µM: TGI [8]
3.19 µM: TGI [27]
1.86 µM: TGI [25]
0.474 µM: TGI [29]
19.5 µM: TGI [19]
12.1 µM: TGI [21]
13 µM: TGI [38]
5.8 µM: TGI [28]
21.2 µM: TGI [45]
2.57 µM: TGI [42]
17.1 µM: TGI [53]
1.35 µM: TGI [40]

O=C(Nc1ccc2[nH]c(=S)sc2c1)Nc1ccccc1F
93.5 µM: TGI [4]
inactive: GI50 [1] 41.8 µM | GI50 [2] 35.8 µM | GI50 [3] 26.7 µM | GI50 [4] 23.9 µM | GI50 [5] 26.7 µM | GI50 [6] 42.4 µM | GI50 [7] 36.7 µM | GI50 [8] 24.7 µM | GI50 [9] 10.3 µM | GI50 [10] 18 µM | GI50 [11] 30.6 µM | GI50 [12] 20.4 µM | GI50 [13] 37.2 µM | GI50 [14] 21.5 µM | GI50 [15] 23.1 µM | GI50 [16] 34.8 µM | GI50 [17] 22.4 µM | GI50 [18] 37.6 µM | GI50 [19] 56.5 µM | GI50 [20] 24.5 µM | GI50 [21] 23.1 µM | GI50 [22] > 100 µM | GI50 [23] 22.3 µM | GI50 [56] 21.9 µM | GI50 [24] 54.5 µM | GI50 [25] 51.6 µM | GI50 [26] 73.5 µM | GI50 [27] 4.47 µM | GI50 [28] 59.4 µM | GI50 [29] 32 µM | GI50 [30] 17.3 µM | GI50 [31] 44.3 µM | GI50 [33] 40.5 µM | GI50 [34] 51.5 µM | GI50 [35] 4.09 µM | GI50 [36] 18.4 µM | GI50 [37] 28.8 µM | GI50 [38] 56.4 µM | GI50 [39] 2.71 µM | GI50 [40] 42.2 µM | GI50 [41] 43.1 µM | GI50 [57] 29.6 µM | GI50 [42] 16.3 µM | GI50 [58] 37.4 µM | GI50 [43] 57.5 µM | GI50 [44] 51.2 µM | GI50 [45] 3.58 µM | GI50 [46] 17.5 µM | GI50 [47] 38.2 µM | GI50 [48] 18.5 µM | GI50 [49] 37.7 µM | GI50 [50] 21 µM | GI50 [51] 28.6 µM | GI50 [53] 38 µM | GI50 [54] 22.9 µM | GI50 [55] 41.9 µM
14.6 µM: TGI [39]
64.2 µM: TGI [36]
84.1 µM: TGI [30]
> 100 µM: TGI [1] | TGI [2] | TGI [3] | TGI [5] | TGI [6] | TGI [7] | TGI [8] | TGI [10] | TGI [11] | TGI [12] | TGI [13] | TGI [14] | TGI [15] | TGI [16] | TGI [17] | TGI [18] | TGI [19] | TGI [21] | TGI [22] | TGI [23] | TGI [56] | TGI [24] | TGI [25] | TGI [26] | TGI [28] | TGI [29] | TGI [31] | TGI [33] | TGI [34] | TGI [37] | TGI [38] | TGI [40] | TGI [41] | TGI [57] | TGI [42] | TGI [58] | TGI [43] | TGI [44] | TGI [45] | TGI [46] | TGI [47] | TGI [48] | TGI [49] | TGI [50] | TGI [51] | TGI [53] | TGI [54] | TGI [55]
22.5 µM: TGI [35]
33.4 µM: TGI [27]
38.4 µM: TGI [9]
65.4 µM: TGI [20]
